From patent US20020061888A1, “Combination therapy for the prophylaxis and treatment of hyperlipidemic conditions and disorders” (priority 2000, published 2002)
Several values for one entry are separate records, joined by “and”; a condition that tells them apart may be missing. Equal values may be shown once. Marks after values point to notes of the source that are not given here.

Columns and labels:
Male beagle dogs [1] = assay: Serum total cholesterol in beagle dogs (serum lipid measurements); assay type: in vivo; conditions: for TOTAL SERUM CHOLESTEROL / SERUM TOTAL CHOLESTEROL: n = 6; for decrease in serum total cholesterol concentration: compared to vehicle
Procedure: (§1) Male beagle dogs (9-10 kg) obtained from Marshall farms were fed a normal chow diet once a day for a two hour interval and given water ad libitum. Prior to initiating treatment, the dogs were weighed and blood samples were drawn from the cephalic vein of each dog following an overnight fast to evaluate pretreatment serum total cholesterol levels at the start of the study. […] All doses were administered in gelatin capsules per os to each dog between 9:00-9:30 a.m. prior to feeding. All animals were fed between 9:30-10:00 a.m. and were allowed two hours to eat, at which time any remaining food was removed. […] Animals were dosed daily for three weeks and blood samples were taken at the end of each week after an overnight fast for comparison with pretreatment serum total cholesterol levels. Three consecutive 24 hour fecal samples were collected for each group during the last 72 hours of each week and used to measure the concentration of fecal biles acids excreted during that time period.
Blood was collected from the cephalic vein of each dog into serum separator tubes. The blood was centrifuged at 900×g for 20 minutes at room temperature and the serum decanted. All analyses were performed on a Cobas Mira Clinical Analyzer System (Roche Diagnostic Systems, Branchburg, N.J.) using Roche Diagnostic reagents for enzymatic determinations of serum cholesterol. Commercial calibrator and quality control materials were analyzed with each run to verify assay accuracy and precision. A two-tailed, paired Students t-test was used to determine the statistical significance of changes in serum total cholesterol in treated dogs compared to pretreatment values. A one-way analysis of variance (“ANOVA”) was used to compare each pair of treatment groups to determine the statistical significance of changes in serum total cholesterol.
Beagle dogs also were administered pravastatin to evaluate the monotherapeutic effect of pravastatin on serum total cholesterol.
Male beagle dogs (9-10 kg) obtained from Marshall farms were fed once a day for two hours and given water ad libitum. Prior to initiating treatment, blood samples were drawn from the cephalic vein of each dog to evaluate pretreatment total serum cholesterol levels at the start of the study.
For the dose ranging study, the dogs were assigned to one of five groups based on mean body weights and serum total cholesterol levels. Each group received one of the following dosages: (1) vehicle (empty capsule, afternoon dosing), (2) 3.0 mg/kg/day pravastatin (afternoon dosing), (3) 10 mg/kg/day pravastatin (afternoon dosing), (4) 30 mg/kg/day pravastatin (afternoon dosing), and (5) 10 mg/kg/day pravastatin (morning dosing). One capsule containing pravastatin was administered per os to each dog between 9:00-9:30 a.m. prior to feeding for the 10 mg/kg/day morning dosing group and between 2:30-3:00 p.m. for the afternoon dosing groups. All animals were fed between 9:30-10:00 a.m. and were allowed two hours to eat, at which time any remaining food was removed. […] Animals were dosed daily for four weeks and blood samples were taken at the end of each week after an overnight fast for comparison with pretreatment serum total cholesterol levels.
(§2) Following this initial four week dose-ranging study, dogs from the two groups receiving 10 mg/kg/day pravastatin (a.m. and p.m. dosing groups) were randomized into two new treatment groups based on serum total cholesterol levels to initiate the combination treatment study. […] Dosing continued in this manner for an additional four weeks (Weeks 5-8) with blood and 48-hour fecal samples collected at the end of each week for serum lipid measurements and fecal bile acid determinations, respectively.

Male beagle dogs [2] = assay: Body or fecal weights, stool consistency, general animal health of treated beagle dogs; assay type: in vivo; conditions: Example 3 study (pravastatin 3-30 mg/kg/day, compound A-5 4.0 mg/kg/day, combination), any of the groups
Procedure: as §1
as §2, with “respectively. […] At the end of this three-week period, pravastatin dosing and all empty capsule dosing were discontinued and blood samples were collected weekly for a final three weeks (weeks 12-14) to monitor the return of serum total cholesterol levels back to baseline.” for “respectively.”
Male beagle dogs (9-10 kg) obtained from Marshall farms were fed once a day for two hours and given water ad libitum.

`CC[C@H](C)C(=O)O[C@H]1C[C@H](O)C=C2C=C[C@H](C)[C@H](CC[C@@H](O)C[C@@H](O)CC(=O)O)[C@H]21` [pravastatin, Pravastatin] was tested, and the “TOTAL SERUM CHOLESTEROL” value (Male beagle dogs [1]; pravastatin 10.0 mg/kg/day pm dosing, Week 3, mean ± SEM) was 128 ± 9^3 mg/dL, the “% change in serum total cholesterol compared to the pretreatment value of each group” value (from here on “% change in serum total cholesterol”) (Male beagle dogs [1]; pravastatin 10.0 mg/kg/day pm dosing, Week 4) was “(−21) %” and the “TOTAL SERUM CHOLESTEROL” value (Male beagle dogs [1]; pravastatin 10.0 mg/kg/day pm dosing, Week 4, mean ± SEM) was 126 ±8 mg/dL and 126 ± 8^3 mg/dL. The “% change in serum total cholesterol” value (Male beagle dogs [1]; pravastatin 16.0 mg/kg/day, Week 1) was “(−8) %”, the “SERUM TOTAL CHOLESTEROL” value (Male beagle dogs [1]; pravastatin 16.0 mg/kg/day, Week 1, mean ± SEM) was 142 ± 8 mg/dL and the “% change in serum total cholesterol” value (Male beagle dogs [1]; pravastatin 16.0 mg/kg/day, Week 2) was “(−12) %”. For the same molecule, the “SERUM TOTAL CHOLESTEROL” value (Male beagle dogs [1]; pravastatin 16.0 mg/kg/day, Week 2, mean ± SEM) was 137 ± 12^2 mg/dL, the “% change in serum total cholesterol” value (Male beagle dogs [1]; pravastatin 16.0 mg/kg/day, Week 3) was “(−14) %” and the “decrease in serum total cholesterol concentration” value (Male beagle dogs [1]; pravastatin 16.0 mg/kg/day, one week of treatment) was 8%. For the same molecule, the “decrease in serum total cholesterol concentration” value (Male beagle dogs [1]; pravastatin 16.0 mg/kg/day, three weeks of treatment) was 14%, the “% change in serum total cholesterol” value (Male beagle dogs [1]; pravastatin 30.0 mg/kg/day pm dosing, Week 1) was “(+2) %” and the “TOTAL SERUM CHOLESTEROL” value (Male beagle dogs [1]; pravastatin 30.0 mg/kg/day pm dosing, Week 1, mean ± SEM) was 164 ± 10 mg/dL. The “% change in serum total cholesterol” value (Male beagle dogs [1]; pravastatin 30.0 mg/kg/day pm dosing, Week 2) was “(−18) %”, the “TOTAL SERUM CHOLESTEROL” value (Male beagle dogs [1]; pravastatin 30.0 mg/kg/day pm dosing, Week 2, mean ± SEM) was 132 ± 8^3 mg/dL and the “% change in serum total cholesterol” value (Male beagle dogs [1]; pravastatin 30.0 mg/kg/day pm dosing, Week 3) was “(−18) %”. For the same molecule, the “TOTAL SERUM CHOLESTEROL” value (Male beagle dogs [1]; pravastatin 30.0 mg/kg/day pm dosing, Week 3, mean ± SEM) was 132 ± 11^3 mg/dL, the “% change in serum total cholesterol” value (Male beagle dogs [1]; pravastatin 30.0 mg/kg/day pm dosing, Week 4) was “(−20) %” and the “TOTAL SERUM CHOLESTEROL” value (Male beagle dogs [1]; pravastatin 30.0 mg/kg/day pm dosing, Week 4, mean ± SEM) was 128 ± 7^3 mg/dL. The “lowering of serum total cholesterol” value (Male beagle dogs [1]; pravastatin 30 mg/kg/day, four week dose ranging study) was 20%, the “total decrease in serum total cholesterol compared to the pretreatment value” (Male beagle dogs [1]; pravastatin monotherapy 10 mg/kg/day, Week 8) was 30% and the “% change from Week 0 in total serum cholesterol” value (Male beagle dogs [1]; pravastatin monotherapy 10 mg/kg/day, dosed Weeks 1-11, Week 1) was “(−2) %”. For the same molecule, the “TOTAL SERUM CHOLESTEROL” value (Male beagle dogs [1]; pravastatin monotherapy 10 mg/kg/day, dosed Weeks 1-11, Week 1, mean ± SEM) was 157 ± 10 mg/dL, the “% change from Week 0 in total serum cholesterol” value (Male beagle dogs [1]; pravastatin monotherapy 10 mg/kg/day, dosed Weeks 1-11, Week 2) was “(−16) %” and the “TOTAL SERUM CHOLESTEROL” value (Male beagle dogs [1]; pravastatin monotherapy 10 mg/kg/day, dosed Weeks 1-11, Week 2, mean ± SEM) was 135 ± 17 mg/dL. The “% change from Week 0 in total serum cholesterol” value (Male beagle dogs [1]; pravastatin monotherapy 10 mg/kg/day, dosed Weeks 1-11, Week 3) was “(−18) %”, the “TOTAL SERUM CHOLESTEROL” value (Male beagle dogs [1]; pravastatin monotherapy 10 mg/kg/day, dosed Weeks 1-11, Week 3, mean ± SEM) was 132 ± 13 mg/dL and the “% change from Week 0 in total serum cholesterol” value (Male beagle dogs [1]; pravastatin monotherapy 10 mg/kg/day, dosed Weeks 1-11, Week 4) was “(−19) %”. For the same molecule, the “TOTAL SERUM CHOLESTEROL” value (Male beagle dogs [1]; pravastatin monotherapy 10 mg/kg/day, dosed Weeks 1-11, Week 4, mean ± SEM) was 130 ± 9 [a] mg/dL, the “% change from Week 0 in total serum cholesterol” value (Male beagle dogs [1]; pravastatin monotherapy 10 mg/kg/day, dosed Weeks 1-11, Week 5) was “(−21) %” and the “TOTAL SERUM CHOLESTEROL” value (Male beagle dogs [1]; pravastatin monotherapy 10 mg/kg/day, dosed Weeks 1-11, Week 5, mean ± SEM) was 127 ± 9 [a] mg/dL. The “% change from Week 0 in total serum cholesterol” value (Male beagle dogs [1]; pravastatin monotherapy 10 mg/kg/day, dosed Weeks 1-11, Week 6) was “(−27) %”, the “TOTAL SERUM CHOLESTEROL” value (Male beagle dogs [1]; pravastatin monotherapy 10 mg/kg/day, dosed Weeks 1-11, Week 6, mean ± SEM) was 117 ± 10 [a] mg/dL and the “% change from Week 0 in total serum cholesterol” value (Male beagle dogs [1]; pravastatin monotherapy 10 mg/kg/day, dosed Weeks 1-11, Week 7) was “(−25) %”. The “TOTAL SERUM CHOLESTEROL” value (Male beagle dogs [1]; pravastatin monotherapy 10 mg/kg/day, dosed Weeks 1-11, Week 7, mean ± SEM) was 121 ± 7 [a] mg/dL, the “% change from Week 0 in total serum cholesterol” value (Male beagle dogs [1]; pravastatin monotherapy 10 mg/kg/day, dosed Weeks 1-11, Week 8) was “(−30) %” and the “TOTAL SERUM CHOLESTEROL” value (Male beagle dogs [1]; pravastatin monotherapy 10 mg/kg/day, dosed Weeks 1-11, Week 8, mean ± SEM) was 113 ±9 mg/dL and 113 ± 9 [a] mg/dL. The “% change from Week 0 in total serum cholesterol” value (Male beagle dogs [1]; pravastatin monotherapy 10 mg/kg/day, dosed Weeks 1-11, Week 9) was “(−26) %”, the “TOTAL SERUM CHOLESTEROL” value (Male beagle dogs [1]; pravastatin monotherapy 10 mg/kg/day, dosed Weeks 1-11, Week 9, mean ± SEM) was 119 ± 8 [a] mg/dL and the “% change from Week 0 in total serum cholesterol” value (Male beagle dogs [1]; pravastatin monotherapy 10 mg/kg/day, dosed Weeks 1-11, Week 10) was “(−27) %”. The “TOTAL SERUM CHOLESTEROL” value (Male beagle dogs [1]; pravastatin monotherapy 10 mg/kg/day, dosed Weeks 1-11, Week 10, mean ± SEM) was 118 ± 9 [a] mg/dL, the “% change from Week 0 in total serum cholesterol” value (Male beagle dogs [1]; pravastatin monotherapy 10 mg/kg/day, dosed Weeks 1-11, Week 11) was “(−27) %” and the “TOTAL SERUM CHOLESTEROL” value (Male beagle dogs [1]; pravastatin monotherapy 10 mg/kg/day, dosed Weeks 1-11, Week 11, mean ± SEM) was 118 ± 8 [a] mg/dL. For the same molecule, the “% change from Week 0 in total serum cholesterol” value (Male beagle dogs [1]; pravastatin monotherapy group, dosing terminated after Week 11, Week 12) was “(−19) %”, the “TOTAL SERUM CHOLESTEROL” value (Male beagle dogs [1]; pravastatin monotherapy group, dosing terminated after Week 11, Week 12, mean ± SEM) was 131 ± 9 [a] mg/dL and the “% change from Week 0 in total serum cholesterol” value (Male beagle dogs [1]; pravastatin monotherapy group, dosing terminated after Week 11, Week 13) was “(−9) %”. The “TOTAL SERUM CHOLESTEROL” value (Male beagle dogs [1]; pravastatin monotherapy group, dosing terminated after Week 11, Week 13, mean ± SEM) was 147 ± 9 mg/dL, the “% change from Week 0 in total serum cholesterol” value (Male beagle dogs [1]; pravastatin monotherapy group, dosing terminated after Week 11, Week 14) was “(−11) %” and the “TOTAL SERUM CHOLESTEROL” value (Male beagle dogs [1]; pravastatin monotherapy group, dosing terminated after Week 11, Week 14, mean ± SEM) was 144 ± 12 mg/dL. The “changes in body or fecal weights, stool consistency or general animal health” value (Male beagle dogs [2]) was “no significant changes”.
